Literature values as cited in US20150182479A1, “Method of delivering agmatine for medical treatment” (TOPAZ VENTURES, INC., priority 2013, published 2015).

Tests used:
thermal nociception = conditions: for effect of antagonist on response-latency enhancement by WIN 55212-2: WIN 55212-2 2 mg/kg, SR 141716A 5 mg/kg i.p., idazoxan 2 and 5 mg/kg, yohimbine 5 mg/kg
mice = conditions: for effect on morphine analgesia: agmatine 10 mg/kg i.p. 30 min before morphine s.c.; for effect on oxycodone analgesia: agmatine 10 mg/kg i.p. 30 min before oxycodone s.c.
mouse = conditions: FST; for effect on antidepressant like effect of fluoxetine or paroxetine: agonists ip, agmatine-raising drugs icv; for effect of prior administration on antidepressant like effect of paroxetine and fluoxetine: paroxetine 10 mg/kg ip, fluoxetine 20 mg/kg ip

Q: Which “effect of antagonist on response-latency enhancement by WIN 55212-2” value (“effect of antagonist … by WIN 55212-2” below) (thermal nociception) does the source give for COC(=O)[C@@H]1[C@H]2C[C@H]3c4[nH]c5ccccc5c4CCN3C[C@@H]2CC[C@@H]1O [yohimbine] here?
A: not affected

Q: What about the “effect on BMS 182874-induced potentiation of morphine analgesia” value (mice; tail-flick, mice) of the same compound?
A: not affected

Q: And the “effect on BMS 182874-induced potentiation of oxycodone analgesia” value (mice; tail-flick, mice)?
A: not affected

Q: And the “effect on agmatine-induced potentiation of morphine and oxycodone analgesia” value (“effect on agmatine-induced potentiation” for short) (mice; tail-flick, mice)?
A: blocked

Q: Which “effect of antagonist … by WIN 55212-2” value (thermal nociception) does the source give for Cc1c(C(=O)NN2CCCCC2)nn(-c2ccc(Cl)cc2Cl)c1-c1ccc(Cl)cc1 [SR 141716A] here?
A: blocked

Q: Which “effect on antidepressant like effect of fluoxetine or paroxetine” value (“effect on antidepressant like effect” below) (mouse) does the source give for c1ccc2oc(C3=NCCN3)cc2c1 [2-(2-benzofuranyl)-2-imidazoline] here?
A: potentiated

Q: Which “effect on antidepressant like effect” value (mouse) does the source give for N=C(N)NCCC[C@H](N)C(=O)O [L-arginine] here?
A: potentiated

Q: For CCC1(C2=NCCN2)Cc2ccccc2O1 (stereo not drawn) [efaroxan], which “effect of prior administration on antidepressant like effect of paroxetine and fluoxetine” value (“effect of prior administration” below) (mouse) is on record?
A: blocked

Q: For difluoromethyl ornithine, which “effect on antidepressant like effect” value (mouse) is on record?
A: potentiated

Q: With N=C(N)NN [aminoguanidine] as the compound, how does the “effect on antidepressant like effect” value (mouse) read?
A: potentiated

Q: With c1ccc2c(c1)OCC(C1=NCCN1)O2 (stereo not drawn) [idazoxan] as the compound, how does the “effect of prior administration” value (mouse) read?
A: blocked

Q: And the “effect of antagonist on response-latency enhancement by combination of WIN 55212-2 and agmatine” value (thermal nociception; WIN 55212-2 2 mg/kg and agmatine, yohimbine 5 mg/kg i.p.)?
A: blocked

Q: What about the “effect of antagonist … by WIN 55212-2” value (thermal nociception) of the same compound?
A: attenuated

Q: And the “effect on BMS 182874-induced potentiation of oxycodone analgesia” value (mice; tail-flick, mice)?
A: blocked

Q: What about the “effect on agmatine-induced potentiation” value (mice; tail-flick, mice) of the same compound?
A: blocked

Q: With COc1nc(C)nc(Cl)c1N=C1NCCN1 [moxonidine] as the compound, how does the “effect on antidepressant like effect” value (mouse) read?
A: potentiated

Q: With “(−)-cis 3-(2-hydroxy-4-(1,1-dimethylheptyl)phenyl)-trans-4-(3-hydroxypropyl) cyclohexanol [CP55,940]” as the compound, how does the “hot-plate response latency, drug given alone” value (thermal nociception; i.p., WIN 55212-2 or CP55,940 1, 2 or 3 mg/kg, agmatine 50 or 100 mg/kg) read?
A: increased

Q: For NC(N)=NCCCCN=C(N)N [arcaine], which “effect on antidepressant like effect” value (mouse) is on record?
A: potentiated

Q: With Clc1cccc(Cl)c1N=C1NCCN1 [clonidine] as the compound, how does the “effect on antidepressant like effect” value (mouse) read?
A: potentiated

Q: What about the “effect on morphine analgesia” value (mice; tail-flick, mice) of the same compound?
A: potentiate

Q: What about the “effect on oxycodone analgesia” value (mice; tail-flick, mice) of the same compound?
A: potentiate

Q: For N=C(N)NCCC[C@@H](N)C(=O)O [D-arginine], which “effect of prior administration” value (mouse) is on record?
A: blocked

Q: With Cc1noc(NS(=O)(=O)c2cccc3c(N(C)C)cccc23)c1C [BMS 182874] as the compound, how does the “tail-flick latency, drug alone” value (mice; 360-min observation period) read?
A: did not produce any change

Q: What about the “effect of pretreatment on analgesic effect produced by agmatine alone” value (mice; tail-flick, mice) of the same compound?
A: did not increase

Q: What about the “effect on agmatine-induced potentiation” value (mice; tail-flick, mice) of the same compound?
A: not altered

Q: What about the “effect on morphine analgesia” value (mice; tail-flick, mice) of the same compound?
A: potentiates

Q: And the “effect on oxycodone analgesia” value (mice; tail-flick, mice)?
A: potentiates
